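Results reflect a 48-hour exposure of cells in 96-well plates to compound at five concentrations. At the TGI there is no net growth.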
Legend:
Assay in all cases: NCI-60 cell line screen, 48 h
[1] = tested on: OVCAR-5 ovarian
[2] = tested on: MALME-3M melanoma
[3] = tested on: SNB-75 CNS
[4] = tested on: SK-MEL-5 melanoma
[5] = tested on: KM12 colon
[6] = tested on: DLD-1 colon
[7] = tested on: COLO 205 colon
[8] = tested on: CAKI-1 renal
[9] = tested on: ACHN renal
[10] = tested on: SNB-19 CNS
[11] = tested on: CCRF-CEM leukemia
[12] = tested on: UACC-62 melanoma
[13] = tested on: OVCAR-4 ovarian
[14] = tested on: UACC-257 melanoma
[15] = tested on: NCI-H23 lung
[16] = tested on: HCC-2998 colon
[17] = tested on: SNB-78 CNS
[18] = tested on: U251 CNS
[19] = tested on: KM20L2 colon
[20] = tested on: SF-539 CNS
[21] = tested on: HT29 colon
[22] = tested on: M19-MEL melanoma
[23] = tested on: MOLT-4 leukemia
[24] = tested on: HOP-62 NSCLC
[25] = tested on: UO-31 renal
[26] = tested on: SK-MEL-28 melanoma
[27] = tested on: SW-620 colon
[28] = tested on: SF-268 CNS
[29] = tested on: HCT-15 colon
[30] = tested on: 786-0 renal
[31] = tested on: OVCAR-3 ovarian
[32] = tested on: RXF 393 renal
[33] = tested on: SN12C renal
[34] = tested on: SK-MEL-2 melanoma
[35] = tested on: M14 melanoma
[36] = tested on: DMS 114 small cell lung
[37] = tested on: RPMI-8226 leukemia
[38] = tested on: K-562 leukemia
[39] = tested on: DMS 273 small cell lung
[40] = tested on: SK-OV-3 ovarian
[41] = tested on: HOP-18 NSCLC
[42] = tested on: A549 NSCLC
[43] = tested on: TK-10 renal
[44] = tested on: LOX IMVI melanoma
[45] = tested on: OVCAR-8 ovarian
[46] = tested on: IGROV1 ovarian
[47] = tested on: SF-295 CNS
[48] = tested on: NCI-H460 lung
[49] = tested on: LXFL 529 NSCLC
[50] = tested on: EKVX NSCLC
[51] = tested on: XF 498 CNS
[52] = tested on: HOP-92 NSCLC
[53] = tested on: NCI-H522 lung
[54] = tested on: HCT-116 colon
[55] = tested on: SR leukemia
[56] = tested on: NCI-H226 lung
[57] = tested on: HL-60(TB) leukemia

`CC[P+]1(CC)CCCC1` was tested, and the TGI [1] was over 100 µM, the TGI [2] was over 100 µM and the TGI [3] was over 100 µM. It also gave a TGI [4] of over 100 µM, a TGI [5] of over 100 µM and a TGI [6] of over 100 µM. For the same molecule, the TGI [7] was over 100 µM, the TGI [8] was over 100 µM and the TGI [9] was over 100 µM. It also gave a TGI [10] of over 100 µM, a TGI [11] of over 100 µM and a TGI [12] of over 100 µM. For the same molecule, the TGI [13] was over 100 µM, the TGI [14] was over 100 µM and the TGI [15] was over 100 µM. The TGI [16] was over 100 µM, the TGI [17] was over 100 µM and the TGI [18] was over 100 µM. The TGI [19] was over 100 µM, the TGI [20] was over 100 µM and the TGI [21] was over 100 µM. The TGI [22] was over 100 µM, the TGI [23] was over 100 µM and the TGI [24] was over 100 µM. It also gave a TGI [25] of over 100 µM, a TGI [26] of over 100 µM and a TGI [27] of over 100 µM. It also gave a TGI [28] of over 100 µM, a TGI [29] of over 100 µM and a TGI [30] of over 100 µM. The TGI [31] was over 100 µM, the TGI [32] was over 100 µM and the TGI [33] was over 100 µM. For the same molecule, the TGI [34] was over 100 µM, the TGI [35] was over 100 µM and the TGI [36] was over 100 µM. It also gave a TGI [37] of over 100 µM, a TGI [38] of over 100 µM and a TGI [39] of over 100 µM. It also gave a TGI [40] of over 100 µM, a TGI [41] of over 100 µM and a TGI [42] of over 100 µM. For the same molecule, the TGI [43] was over 100 µM, the TGI [44] was over 100 µM and the TGI [45] was over 100 µM. The TGI [46] was over 100 µM, the TGI [47] was over 100 µM and the TGI [48] was over 100 µM. It also gave a TGI [49] of over 100 µM, a TGI [50] of over 100 µM and a TGI [51] of over 100 µM.
`C/C(=N/O)c1ccc2c(c1)C(=NO)c1cc(/C(C)=N/O)ccc1-2` showed a TGI [1] of 31.6 µM, a TGI [2] of 23 µM and a TGI [3] of 36.3 µM. For the same molecule, the TGI [4] was 28.5 µM, the TGI [5] was 32.9 µM and the TGI [6] was 52.8 µM. It also gave a TGI [7] of 38.5 µM, a TGI [8] of over 100 µM and a TGI [52] of 47.4 µM. For the same molecule, the TGI [53] was 53.3 µM, the TGI [9] was 20.8 µM and the TGI [10] was 26.8 µM. The TGI [12] was 38.4 µM, the TGI [13] was 30.5 µM and the TGI [14] was 5.87 µM. It also gave a TGI [15] of 35.3 µM, a TGI [16] of 33.9 µM and a TGI [17] of 47.9 µM. It also gave a TGI [18] of 28.6 µM, a TGI [54] of 64.6 µM and a TGI [19] of 32.3 µM. The TGI [20] was 31.4 µM, the TGI [21] was 30 µM and the TGI [22] was 64.8 µM. It also gave a TGI [23] of 13.2 µM, a TGI [24] of 28.3 µM and a TGI [25] of 28.3 µM. For the same molecule, the TGI [26] was 31.7 µM, the TGI [27] was 34.8 µM and the TGI [28] was 28.3 µM. The TGI [29] was 36.3 µM, the TGI [30] was 42.3 µM and the TGI [31] was 39.3 µM. For the same molecule, the TGI [32] was 48.8 µM, the TGI [33] was 33.6 µM and the TGI [34] was 40.1 µM. It also gave a TGI [35] of 31.2 µM, a TGI [36] of 53.7 µM and a TGI [37] of over 100 µM. For the same molecule, the TGI [38] was over 100 µM, the TGI [39] was over 100 µM and the TGI [55] was over 100 µM. It also gave a TGI [56] of 26.8 µM, a TGI [40] of 36.5 µM and a TGI [57] of 91.4 µM. It also gave a TGI [41] of 27.4 µM, a TGI [42] of 68.6 µM and a TGI [44] of 26.7 µM. It also gave a TGI [45] of 32.3 µM, a TGI [46] of 49.2 µM and a TGI [47] of 29.1 µM. For the same molecule, the TGI [48] was 31.8 µM, the TGI [49] was 29 µM and the TGI [50] was 41.7 µM. For the same molecule, the TGI [51] was 36.2 µM.

Reference: PubChem BioAssay (NCI)
